Measurements from patent publication US6872414B1, “Anhydrous lactitol crystals, a product containing the same and a process for the preparation thereof as well as use thereof” (Xyrofin Oy, priority 1999, dated 2005).
Read-outs that look alike come from different tables or passages of the source.

What was measured:
[1] = prior art reports; cited from earlier work
[2] = Hygroscopicity / water sorption of lactitol crystals; format: physicochemical
Method: The water sorption of a sample of β crystals was less than about 0.3% of water in 45 days even when the relative humidity of the ambient air was 75% at 40° C.

[3] = Storability of crystals at room temperature; format: physicochemical; details: room temperatures, relative humidity below 60%
Description: The new crystalline orthorhombic anhydrous lactitol β has a good flowability and storability, since it is stable at room temperatures, the relative humidity being below 60%.

[4] = Crystal form after milling (DSC, X-ray powder diffraction); format: physicochemical; details: laboratory hammer mill, 10 g/min, 600 rpm
Method: Good quality anhydrous β lactitol crystals (lactitol assay 99.9%, enthalpy 169.4±0.5 J/g) was milled with a small laboratory hammer mill (Culatti). The feed rate was 10 g/min and the hammer speed 600 rpm. Fine lactitol particles were obtained.

## OC[C@@H](O)[C@@H](O[C@@H]1O[C@H](CO)[C@H](O)[C@H](O)[C@H]1O)[C@H](O)[C@@H](O)CO [A1 anhydrous lactitol, lactitol]
[1]
  hygroscopicity: hygroscopic

## OC[C@@H](O)[C@@H](O[C@@H]1O[C@H](CO)[C@H](O)[C@H](O)[C@H]1O)[C@H](O)[C@@H](O)CO [anhydrous lactitol β, lactitol]
[2]
  hygroscopicity: very low hygroscopicity
[2]; 25° C. and 60% relative humidity
  hygroscopicity: very low hygroscopicity
[2]; 40° C. and 75% relative humidity
  hygroscopicity: very low hygroscopicity
[2]; 40° C., 75% relative humidity, 45 days
  water sorption: less than 0.3%
[3]
  stability / storability: stable
[4]
  crystal form after milling: still in the anhydrous β form

## OC[C@@H](O)[C@@H](O[C@@H]1O[C@H](CO)[C@H](O)[C@H](O)[C@H]1O)[C@H](O)[C@@H](O)CO [lactitol anhydride]
[1]
  hygroscopicity: highly hygroscopic

## OC[C@@H](O)[C@@H](O[C@@H]1O[C@H](CO)[C@H](O)[C@H](O)[C@H]1O)[C@H](O)[C@@H](O)CO [α lactitol, lactitol]
[1]
  hygroscopicity: low hygroscopicity
